As a reminder, the IC50 is the concentration at which inhibition is half-maximal.

The values that follow come from PubChem BioAssay AID624167 (Sanford-Burnham Center for Chemical Genomics, 2012).

Activity calls are given as the source filed them.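 How the source made its calls: active means mean IC50 for reducing PEG3 promoter reporter signal at or below a set limit, with IC50 above the limit in both counter screens; inactive means the rest, including counter screen hits.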 Bounds are passed on as bounds.

Assay [1] concerns the target PEG-3 (UniProt Q6IN02). Put plainly: Peg3 promoter luciferase inhibitors, potency, dose response, cell-based, HeLa, CREF/GAPDH counter-screen panel (AID 624167). Particulars: HeLa PEG-Prom luciferase reporter, overnight, CREF/GAPDH counter-screens, mean of runs. (In general: A counterscreen serves to expose hits that act by an unwanted route or on another target.)
Assay [2] has as its system PEG-3. Described as above. The following applies: HeLa PEG-Prom luciferase reporter, overnight, CREF/GAPDH counter-screens.
Setting [3] is: run 1, dose range 1, individual replicate IC50 per panel.
Where [4] appears, read: run 2, dose range 1, individual replicate IC50 per panel.

Chain of PEG-3 (UniProt Q6IN02) (Q6IN02 whole entry, looked up): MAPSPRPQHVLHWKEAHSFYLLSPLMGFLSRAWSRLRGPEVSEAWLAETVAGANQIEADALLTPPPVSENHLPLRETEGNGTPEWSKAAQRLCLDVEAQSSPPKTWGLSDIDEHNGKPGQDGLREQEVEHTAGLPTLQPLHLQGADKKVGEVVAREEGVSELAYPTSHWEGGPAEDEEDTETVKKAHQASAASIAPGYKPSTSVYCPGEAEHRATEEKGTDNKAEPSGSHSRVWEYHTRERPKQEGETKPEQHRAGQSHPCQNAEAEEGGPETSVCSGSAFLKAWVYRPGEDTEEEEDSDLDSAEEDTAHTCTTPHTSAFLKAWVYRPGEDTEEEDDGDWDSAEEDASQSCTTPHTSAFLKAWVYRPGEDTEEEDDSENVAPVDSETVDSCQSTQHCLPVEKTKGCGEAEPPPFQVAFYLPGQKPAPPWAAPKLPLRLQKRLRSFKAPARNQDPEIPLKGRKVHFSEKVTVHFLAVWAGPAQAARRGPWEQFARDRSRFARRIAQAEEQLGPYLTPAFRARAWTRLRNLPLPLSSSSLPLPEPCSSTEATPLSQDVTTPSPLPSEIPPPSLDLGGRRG

Take `O=C(CCCN1C(=O)/C(=C/c2cccc(Br)c2)SC1=S)Nc1cccnc1`: the IC50 in assay [1] was 13.6 µM; in assay [2] (setting [3]), 15.1 µM; in assay [2] (setting [4]) it was 12.1 µM.
Taken in the same sequence, the figures for `COc1cccc(Nc2nc(C(N)Cc3ccccc3)cs2)n1` (configuration not stated) were 18.2 µM, 20.4 µM and 15.9 µM.
Taken in the same sequence, the figures for `FC(F)Sc1ccc(NC(=S)NC(c2ccccc2)c2ccccc2)cc1` were 18 µM, 19.9 µM and 16 µM.
Taken in the same sequence, the figures for `CCN(CC)C(=O)c1ccc(NC(=O)Nc2ccccc2F)cc1` were 17.2 µM, 18.8 µM and 15.6 µM.
`O=C(Nc1cccc(-c2cccc(Cl)c2)c1)C1CCN(C2CCC2)CC1`: the IC50 was 16.9 µM in assay [1], 18.9 µM in assay [2] (setting [3]) and 14.9 µM in assay [2] (setting [4]).
Taken in the same sequence, the figures for `Oc1cccc(C(Nc2nccs2)c2ccc3cccnc3c2O)c1` (configuration not stated) were “inactive”, more than 100 µM and 31.1 µM.
The corresponding values for `COC(=O)c1ccc(CNC(=O)Cn2cnc3c(NCc4ccccc4)ncnc32)cc1` are “inactive”, 29.6 µM and 15.5 µM.
For `CNC(=O)c1ccsc1NC(=O)c1ccc(S(=O)(=O)N2CCc3ccccc32)cc1`, the values for the IC50 in assay [1], in assay [2] (setting [3]) and in assay [2] (setting [4]) were 16.5 µM, 19.2 µM and 13.9 µM, respectively.
The corresponding values for `O=C1NC(Cc2ccc(O)cc2)c2nc3ccc(F)cc3c(=O)n2-c2cc3ccccc3cc21` (configuration not stated) are “inactive”, 19.9 µM and 34.4 µM.
The corresponding values for `O=[N+]([O-])c1ccc(NC2CCN(Cc3ccccc3)CC2)c2ccncc12` are “inactive”, 23.9 µM and 21.7 µM.
The corresponding values for `CCOC(=O)c1sc2nc(CSc3ccccc3)nc(N3CCCN(C)CC3)c2c1C` are 19.4 µM, 19.4 µM and 19.4 µM.
For the compound `Cc1ccc(C(=O)N(CCCN(C)C)c2nc3ccc(Cl)cc3s2)cc1C`, the IC50 is 18.4 µM in assay [1], 18.9 µM in assay [2] (setting [3]) and 18 µM in assay [2] (setting [4]).
Consider `CCCN1C/C(=C/c2cccc([N+](=O)[O-])c2)C(=O)/C(=C/c2cccc([N+](=O)[O-])c2)C1`, for which, in assay [1], the IC50 entry was “inactive”. The half-inhibitory concentration (IC50) is 6.69 µM in assay [2] (setting [3]) and more than 100 µM in assay [2] (setting [4]).
Taken in the same sequence, the figures for `CCOC(=O)c1cnc2c(cnn2C)c1NCCCN(C)C` were “inactive”, 18.9 µM and 28.8 µM.
Taken in the same sequence, the figures for `O=C(C[n+]1ccc(-c2cc(C(=O)Nc3cccc(C(F)(F)F)c3)c3ccccc3n2)cc1)c1cccc([N+](=O)[O-])c1` were 18.6 µM, 23.4 µM and 13.8 µM.
Taken in the same sequence, the figures for `COc1nc(N)c(C#N)c(-c2ccc(N(C)CCC#N)cc2)c1C#N` were “inactive”, 6.32 µM and 35.8 µM.
Turning to `COc1ccccc1NC(=O)Nc1nc(C(N)CCc2ccccc2)cs1` (configuration not stated), the IC50 in assay [1] was 14.2 µM; in assay [2] (setting [3]), 12.2 µM; in assay [2] (setting [4]), 16.3 µM.
On to `CC(=O)c1ccc(Nc2cc(C)nc3ccc(C)cc23)cc1`, for which the figures for the IC50 in assay [1], in assay [2] (setting [3]) and in assay [2] (setting [4]) were 13.3 µM, 21.8 µM and 4.69 µM, respectively.
The corresponding values for `COc1ccc(-c2cc(C(=O)N3CCN(c4ncccn4)CC3)c3ccccc3n2)c(OC)c1` are “inactive”, 39.3 µM and 98.5 µM.
The corresponding values for `COc1cccc(/C=N/NC(=O)c2c(-c3ccccc3)noc2C)c1O` are “inactive”, 42.2 µM and more than 100 µM.
The corresponding values for `COc1cccc(Nc2nc(C(N)C3CCCCC3)cs2)n1` (configuration not stated) are “inactive”, 21.8 µM and 47.6 µM.
As to `O=Cc1cn(Cc2ccc(Br)cc2)c2ccccc12`, the IC50 result in assay [1] was “inactive”. Also, the IC50 was 43.8 µM in assay [2] (setting [3]) and more than 100 µM in assay [2] (setting [4]).
With `Cc1cccc(N=C2Sc3nc4c(C)c(C)ccc4cc3CN2CCN2CCOCC2)c1`, in assay [1], the IC50 entry was “inactive”. Moreover, the results for the IC50 in assay [2] (setting [3]) and in assay [2] (setting [4]) were 29.3 µM and 32 µM, respectively.
Taken in the same sequence, the figures for `CCCc1ccc(C(=O)O/N=C(\N)c2ccccn2)cc1` were “inactive”, 36.5 µM and 16.6 µM.
The corresponding values for `COc1ccc(C[C@H]2CN3C(=NC[C@@H]3Cc3ccc(O)cc3)N2C[C@H](C)NC(=O)c2ccc(C)c(Br)c2)cc1` are “inactive”, 22.7 µM and 20.8 µM.
Taken in the same sequence, the figures for `CC(C)n1nc(C(=O)Oc2cc(Cl)ccc2Cl)c2ccccc2c1=O` were “inactive”, 65.8 µM and more than 100 µM.
As to `O=C1NC(=O)N(Cc2ccco2)C(=O)/C1=C/C=C/c1ccco1`, the IC50 was 13.7 µM in assay [1], 14.8 µM in assay [2] (setting [3]) and 12.6 µM in assay [2] (setting [4]).
Taken in the same sequence, the figures for `N#C/C(=C\c1cccc([N+](=O)[O-])c1)C(=O)NCc1ccc(Cl)cc1` were 14 µM, 14.7 µM and 13.4 µM.
Taken in the same sequence, the figures for `Cc1ccc(C)c(OCC(O)CN2CCC(CN3C(=O)c4cccc5cccc(c45)C3=O)CC2)c1` (configuration not stated) were 17.2 µM, 18.4 µM and 15.9 µM.
Take `c1ccc(C(=NNc2nc3ccccc3s2)c2ccccn2)cc1`: the IC50 in assay [1] is 16 µM; in assay [2] (setting [3]), 6.63 µM; in assay [2] (setting [4]) it was 25.3 µM.
The corresponding values for `Cc1ccc2sc(N(CCCN(C)C)C(=O)c3ccc(S(=O)(=O)N(C)Cc4ccccc4)cc3)nc2c1C` are 13.7 µM, 19 µM and 8.42 µM.
The corresponding values for `COC(=O)c1cc(=O)n(Cc2ccco2)c(=Nc2ccc(F)cc2)s1` are 17.8 µM, 17.6 µM and 17.9 µM.
The corresponding values for `CCOC(=O)c1c(C)[nH]c(C(=O)OCC(=O)Nc2sccc2C(N)=O)c1C` are “inactive”, 31.1 µM and 68.7 µM.
For the compound `COc1cc2ccccc2cc1C(=O)N(CCN(C)C)c1nc2c(OC)ccc(OC)c2s1`, the IC50 result in assay [1] is “inactive”. In addition, the values for the IC50 in assay [2] (setting [3]) and in assay [2] (setting [4]) were 30.7 µM and 21.2 µM, respectively.
The corresponding values for `COc1ccc(-c2nsc3c(N4CCCCC4C)ncnc23)cc1` (configuration not stated) are 15.7 µM, 17.5 µM and 14 µM.
Consider `CCOc1ccc2[nH]c3c(NCCc4ccc(OC)c(OC)c4)ncnc3c2c1`, for which, in assay [1], the IC50 result was “inactive”. The IC50 in assay [2] (setting [3]) was 46.3 µM; in assay [2] (setting [4]) it was more than 100 µM.
Taken in the same sequence, the figures for `COc1ccc(-c2cc(C(F)F)n3ncc(C(=O)n4ccnc4C)c3n2)cc1` were 12.5 µM, 18.3 µM and 6.84 µM.
`CN(C)C(=O)c1cccc(-c2cnc3c(NC=O)cc(-c4cccc(C(F)(F)F)c4)cn23)c1`: the concentration for half-maximal inhibition (IC50) in assay [1] was 16 µM; in assay [2] (setting [3]), 11.6 µM; in assay [2] (setting [4]) it was 20.3 µM.
Taken in the same sequence, the figures for `COc1ccccc1N(C(=O)CCl)c1cn(C(C)=O)c2ccccc12` were “inactive”, 24.1 µM and 26.5 µM.
